Each structure is given as a SMILES string.

In the assay the target is T1, Myriococcum thermophilum cellobiose dehydrogenase (CDH, SEQ ID NO: 1) variant W316R (Thermothelomyces myriococcoides, UniProt A9XK88, W316R).
T1 sequence (A9XK88 22-828 W316R): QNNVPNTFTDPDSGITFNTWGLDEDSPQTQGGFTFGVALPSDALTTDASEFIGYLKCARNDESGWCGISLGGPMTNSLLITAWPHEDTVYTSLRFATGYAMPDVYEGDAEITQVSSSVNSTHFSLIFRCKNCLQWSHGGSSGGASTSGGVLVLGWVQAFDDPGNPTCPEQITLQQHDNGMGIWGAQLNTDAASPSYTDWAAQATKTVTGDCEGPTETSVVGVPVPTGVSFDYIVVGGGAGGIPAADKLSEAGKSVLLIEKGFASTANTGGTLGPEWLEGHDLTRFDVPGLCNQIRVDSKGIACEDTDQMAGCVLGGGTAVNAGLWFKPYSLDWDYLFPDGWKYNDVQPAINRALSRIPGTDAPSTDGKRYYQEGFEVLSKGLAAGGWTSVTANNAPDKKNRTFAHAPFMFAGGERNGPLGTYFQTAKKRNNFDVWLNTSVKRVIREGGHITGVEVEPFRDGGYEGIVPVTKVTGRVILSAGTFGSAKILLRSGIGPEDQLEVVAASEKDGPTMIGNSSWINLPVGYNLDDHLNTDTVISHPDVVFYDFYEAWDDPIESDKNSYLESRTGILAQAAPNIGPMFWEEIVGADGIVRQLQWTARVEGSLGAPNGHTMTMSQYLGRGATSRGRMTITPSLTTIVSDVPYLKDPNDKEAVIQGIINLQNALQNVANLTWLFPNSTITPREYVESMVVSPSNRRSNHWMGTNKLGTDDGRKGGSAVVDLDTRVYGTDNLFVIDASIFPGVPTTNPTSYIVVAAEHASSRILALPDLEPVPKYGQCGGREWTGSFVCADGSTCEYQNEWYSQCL
As to the kind of experiment: Steady-state kinetics, DCIP assay: M. thermophilum CDH W316R. In kind it is biochemical. The conditions noted are these: apparent, pH 4.5, 30° C. As to the method:
Enzyme activity was assayed at 30° C. using either the DCIP (Karapetyan et al., 2005 Journal of Biotechnology 121: 34-48) or cytochrome c (Canevascini et al., 1991, European Journal of Biochemistry 198: 43-52) as electron acceptor. […] Stock solutions of carbohydrates used for kinetic measurements were prepared in the respective buffer and allowed to stand overnight for mutarotation, while stock solutions of electron acceptors were prepared in water and immediately used. The reaction stoichiometry is 1 for the two-electron acceptor DCIP (1 mole of DCIP reduced per mole of carbohydrate oxidized), but 2 for the one-electron acceptor cytochrome c. Kinetic constants were calculated by fitting the observed data to the Henri-Michaelis-Menten equation or to the adapted model for substrate inhibition using nonlinear least-squares regression and the program SigmaPlot (Systat Software, San Jose, Calif., USA). […]
Recombinant wild-type CDH as well as variants were produced in 1 L baffled flasks. […] Increase in activity was monitored using the DCIP and the cytochrome c enzyme assays. […]
The sample was loaded on a 20 mL PHE Sepharose FF column (HR26/20) equilibrated with 50 mM Na-acetate buffer pH 5.5 containing 20% ammonium sulfate. […] Fractions were tested for CDH activity and pooled according to the highest Reinheitszahl (RZ, calculated from the absorbance ratio 420 nm/280 nm). […]

Regarding `OC[C@H]1O[C@H](O[C@H]2[C@H](O)[C@@H](O)C(O)O[C@@H]2CO)[C@H](O)[C@@H](O)[C@@H]1O` (some centres unmarked) [Maltose, maltose], the catalytic efficiency (kcat/KM) (usually the second-order rate constant that governs catalysis at low substrate concentration) amounted to 0.09 M⁻¹ s⁻¹. The kcat (usually the maximal rate divided by the concentration of active sites) (~ values only estimated by non linear regression) was 0.12 s⁻¹.

The values are drawn from US10184115B2, “Mutated cellobiose dehydrogenase with increased substrate specificity” (DIRECTSENS GMBH, priority 2012, dated 2019).
